The record followed here is patent publication US6489307B1, “Antisense compositions targeted to β1-adrenoceptor-specific mRNA and methods of use” (University of Florida, priority 1998, dated 2002).

Where “and” joins values, the source holds several entries; their conditions need not be identical. Equal values may be shown once. Entries after “also recorded” stand apart in the source; their conditions may differ. Bounds are passed on as bounds.

Data set [1] relates to SHRs. As to the kind of experiment: Telemetric monitoring of conscious SHRs during dobutamine infusion. Type of data set: in vivo, rat (SHR). Here is the method: Two days after catherization of the jugular vein, control values were taken and 1 mg/kg β1-AS-ODN was injected. 48 hr later, rats were tested for the effect of β1-AS-ODN. The rats were allowed to recover until all the cardiovascular parameters returned to control values. […] For β1-stimulation, SHRs were infused with dobutamine (β1-selective agonist) through a jugular vein catheter at 5, 10, 20, and 40 μg·kg^−1·min.^−1. Each dose was given for 5 min. continuously and at 1-hr intervals until all the cardiovascular parameters returned to baseline values so as to avoid the effect of tachyphylaxis. BP and HR were sampled every 1 min. dP/dtmax was calculated from the slope of the rising pulse-pressure curve and determined every 1 min. The difference between values at each dose and baseline was denoted as Δ.
Two days after catheterization of jugular vein, control values were taken and 1 mg/kg β1-AS-ODN was injected. Forty-eight hr later, rats were tested for the effect of β1-AS-ODN. The rats were allowed to recover until all the cardiovascular parameters returned to control values. […] For β1-stimulation, SHR were infused with dobutamine (β1-selective agonist) through jugular vein catheter at 5, 10, 20, 40 μg/kg/min. Each dose was given for 5 min continuously and at 1-hr intervals until all cardiovascular parameters returned to baseline so as to avoid the effect of tachyphylaxis. BP and HR were sampled every min. dP/dtmax was calculated from the slope of the rising pulse pressure curve and determined every min. The difference between values at each dose and baseline was denoted as Δ.

The next data set relates to β1-AR mRNA. In words: RT-PCR of β1-AR mRNA in myocardium. Type of data set: in vivo, Sprague-Dawley rats. To be noted: adjusted for GAPDH. How it is done:
Total RNA was isolated from rat myocardium with the single step acid-guanidinum thiocyanate-phenol-chloroform method and quantified (Chomcznski and Sacchi, 1987). One μg of total RNA was reverse transcribed with oligo-dT (Promega) and M-MLV reverse transcriptase (Promega) at 37° C. for one hr. 1.5 μl of RT material was amplified with Taq DNA polymerase (Promega) using a primer pair specific to β1-AR:
PCR™ product was 432 base pairs. For PCR, 35 cycles were used at 95° C. for one minute, 60° C. for one minute, and 72° C. for one min. The RT-PCR™ amplified samples were visualized on 1.8% agarose gels using ethidium bromide. A primer pair of rat GAPDH was used as control:
For PCR™, 35 cycles were used at 95° C. for one min, 60° C. for one min, 72° C. for one min. PCR™ product was 504 base pairs. Relative intensity of bands of interest were analyzed by NSF-300G Scanner (Microtek) (Yang et al., 1998; Li et al., 1999).

The next data set relates to isolated rat heart. In words: Isolated perfused heart model, myocardial ischemia-reperfusion. Conditions: 2 mg/kg 6 hr before. In kind it is in vivo, Sprague-Dawley rats. Here is the method:
Male Sprague-Dawley rats weighing 200-250 g were injected intravenously with either AS-ODNs (n=7) or IN-ODNs (n=7) at a dose of 200 μg/rat 4 days before excising the hearts. DOTAP/DOPE liposomes (700 μg/rat) were given along with ODNs.
The hearts were excised rapidly and placed in ice-cold Kreb-Henseleit buffer (mmol/L: NaCl 118, KCl 4.7, KH2PO4 1.2, MgSO4 1.2, CaCl2 1.25, NaHCO3 25, and glucose 11, pH 7.4). Within one min, the hearts were transferred to an isolated perfusion apparatus and perfused via the aorta with oxygen-saturated (95% O2+5% CO2) Kreb-Henseleit buffer kept at 37° C. with the use of a MasterFlex pump (model 7015-21, Cole-Palmer Instrument Co.) according to the modified Langendroff procedure (Yang et al., 1998; Neely and Rovetto, 1975). The heart was placed in a semi-closed circulating water-warmed (37° C.) air chamber, paced atrially with a Medtronic 5320 pacemaker at a rate of 300 bpm, and perfused at a constant flow (5.5-6.0 ml/per min). Coronary perfusion pressure (CPP) was measured via a catheter placed just proximal to the aorta and connected to a Gould Statham P23ID pressure transducer. A latex balloon filled with water and connected to a Gould Statham P23ID pressure transducer was inserted in the left ventricle through the left atrium to measure left ventricular end-diastolic pressure (LVEDP), left ventricular systolic pressure (LVSP), and developed left ventricular pressure (dLVP) (dLVP=LVSP−LVEDP). LVEDP during equilibration was set at 5 to 7 mmHg. All measurements were continuously recorded on a 4-channel record (Astro-Med).
Six hearts from saline-treated rats were continuously perfused with Kreb-Henseleit buffer for 80 min and served as sham control. Hearts from other rats, after 20 min of equilibration, were subjected to 30 min of ischemia followed by 30 min of reperfusion. After completion of the study, hearts were frozen in liquid-nitrogen for β1-AR analysis by binding assay, β1-AR protein analyses by Western blot, β1-AR mRNA analysis by reverse transcription-polymerase chain reaction (RT-PCR™), and measurement of MDA.
The protective effects of β1-AS-ODNs were tested in a rat model of myocardial ischemia-reperfusion. Five groups of SD rats were studied. Sham controls (n=6) were injected with saline and perfused continuously for 80 min without ischemia/reperfusion (I/R). In other groups, hearts were perfused for 20 min and subjected to global ischemia (30 min) followed by reperfusion (30 min). […] AS-ODN+I/R (n=7) or INV-ODN+I/R (n=7) were injected iv. with 1 mg/kg β1-AS-ODN or INV-ODN 4 days before the I/R study was performed.

Another data set deals with β1-AR protein. In words: Western blot of β1-AR protein in myocardium. In kind it is in vivo, Sprague-Dawley rats. Conditions: Western analysis. How it is done: Myocardial tissues were homogenized and lysed in boiling lysis buffer (1% SDS, 0.1% Triton X-100®, and 10 mmol/L Tris-HCl, pH 7.4) and centrifuged at 10,000 RPM for 30 minutes at 4° C. The lysate protein from myocardial tissues (20 μg/lane) was separated by 8% SDS-PAGE using a Bio-Rad Mini-Protean cell, transferred to nitrocellulose membrane (Amersham). After incubation in blocking solution (4% non-fat milk, Sigma), membranes were incubated with 1:1000 dilation primary antibody (polycolonal antibody to β1-AR, Santa Cruz Biotechnology) for overnight at 4° C. Membranes were washed and incubated with 1:2000 dilution second antibody (Amersham) for one hr. The membranes were detected with the ECL system, as described previously (Yang et al, 1998; Li et al., 1999).
On the technique in general: In western blotting, separated proteins are transferred to a membrane and probed.

The subject of data set [2] is SHRs. In kind it is in vivo, rat (SHR). Here is the method:
Each rat cage was placed on a receiver (RLA 1020, Data Sciences, St. Paul, Minn.) for measurement of cardiovascular parameters. Data were collected with a computer-based data acquisition program (Dataquest Lab-PRO3.0; Data Sciences). BP and HR were measured every 10 min. and averaged every 1 to 24 hrs. Before treatment, SHRs were monitored for a week to get a stable baseline.
Each rat cage was placed on a receiver (RLA1020, Data Sciences) for measurement of cardiovascular parameters. Data were collected with a computer-based data acquisition program (Dataquest LabPRO3.0; Data Sciences). BP and HR were measured every 10 min and averaged every 1 to 24 hr. Before treatment, SHR were monitored for a week to get a stable baseline.

Another data set has as its system MDA (lipid peroxidation). In words: MDA levels in myocardium after ischemia-reperfusion. In kind it is in vivo, Sprague-Dawley rats. To be noted: pretreatment before ischemia-reperfusion; vs saline. How it is done: Malondialdehyde (MDA) levels in myocardium were measured in duplicate by a modification of the method of Ohkawa et al., (1979). Briefly, the ventricular tissues were homogenized. The assay mixture consisted of 0.1 ml of the tissue homogenate, 0.4 ml of 0.9% NaCl, 0.5 ml of 3% sodium dodecylsulfate, 3 ml of TBA (thiobarbituric acid reagent, containing equal parts of 0.8% aqueous thiobarbituric acid and acetic acid) and was heated for 75 min at 95° C. Thereafter, 1 ml cold 0.9% NaCl was added to the mixture, which was cooled and extracted with 5 ml n-butanol. After centrifugation at 3,000 rpm for 15 min, the butanol phase was assayed spectrophotometrically at 532 nm. Tetramethoxypropane (in amounts of 0, 0.1, 0.2, 0.4, 0.8, 1.0 nmole) served as external standard. MDA levels in myocardium were expressed in μmol/g tissue.

`CC(CCc1ccc(O)cc1)NCCc1ccc(O)c(O)c1` (stereo not shown) [Dobutamine, dobutamine]: the “effect on SBP” value in the data set with SHRs [1] (higher infusion speed) was “reduced SBP; also recorded: reduced SPB”. Further, the “elevation of SBP” value in the data set with SHRs [1] (low infusion speed) was 5 to 8 mm Hg and 5-8 mm Hg.
`CC(C)NCC(O)COc1ccc(CC(N)=O)cc1` (stereo not shown) [atenolol, reference compound]: the “increase of mRNA for β1-AR in myocardium” value in the data set on β1-AR mRNA was “not significantly affected”. Further, in the data set with isolated rat heart, the “increase in CPP and LVEDP induced by ischemia-reperfusion” value is on record as “reduced the increase”; the “ischemia-reperfusion-induced change in LVSP and dLVP” value was “modestly attenuated”. The “ischemia-reperfusion-mediated increase in β1-AR protein expression” value in the data set with β1-AR protein is “no effect”. Also, in the data set with SHRs [2] (1 mg/kg i.v.), the “duration of hypotensive effect” value stood at 10 h and the “onset of hypotensive effect after injection” value is on record as 20 min. In addition, the duration of action result in the data set with SHRs [2] (comparison with β1-AS-ODN) was “less than 1 day”. In addition, the bradycardia result with SHRs [2] (rat, in vivo) is given as “appreciable bradycardia”. The “basal (resting) HR” value in the data set with SHRs [1] (1 mg/kg, control 365±8) was determined as 295±12 bpm. In addition, the “time until inotropic and chronotropic effects of dobutamine returned to control levels” value with SHRs [1] (after 1 mg/kg administration) is at most 24 h. In addition, in the data set on MDA (lipid peroxidation), the “increase in MDA levels in the myocardium” value is given as “attenuated the increase”.
